pIC50, pKi: −log10 of the molar value.
How the values were obtained:
EGFR [1] = target: EGFR (UniProt P00533)
MAPK14 [2] = target: MAPK14 (UniProt Q16539); experiment: p38 MAP kinase Inhibition Assay
EGFR (human) [3] = target: EGFR (human) (UniProt P00533); conditions: kb
EGFR [4] = target: EGFR (UniProt P00533); remark: listed apart in the source
EGFR (murine) [5] = target: EGFR (murine) (UniProt P00533); conditions: nih3t3
EGFR (Balb/c mice) = EGFR (Balb/c mice) (UniProt P00533)
EGFR (mouse) = EGFR (mouse) (UniProt P00533); conditions: mk
EGFR [6] = target: EGFR (UniProt P00533); remark: listed apart in the source
EGFR (human) [7] = target: EGFR (human) (UniProt P00533); conditions: a431
EGFR [8] = target: EGFR (UniProt P00533); conditions: a431
EGFR [9] = target: EGFR (UniProt P00533); conditions: swiss 3t3 fibroblast
MAPK14 (human) [10] = target: MAPK14 (human) (UniProt Q16539); experiment: Inhibition of TNF-alpha Production in LPS Stimulated Whole Blood; conditions: blood cells
MAPK14 (human), sequence (Q16539 whole entry, looked up): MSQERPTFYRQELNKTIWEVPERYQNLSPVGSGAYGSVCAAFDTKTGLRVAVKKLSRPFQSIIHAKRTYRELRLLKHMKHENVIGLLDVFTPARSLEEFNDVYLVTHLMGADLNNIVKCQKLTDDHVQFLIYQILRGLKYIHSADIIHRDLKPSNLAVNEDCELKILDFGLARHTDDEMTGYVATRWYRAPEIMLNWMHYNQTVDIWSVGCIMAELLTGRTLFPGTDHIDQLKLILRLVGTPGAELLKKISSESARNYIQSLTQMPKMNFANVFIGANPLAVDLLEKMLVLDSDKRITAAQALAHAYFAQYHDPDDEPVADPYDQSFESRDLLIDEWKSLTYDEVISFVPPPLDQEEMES

MAPK14 (human) [11] = target: MAPK14 (human) (UniProt Q16539); experiment: Inhibition of IL-beta Production in LPS Stimulated Whole Blood; conditions: blood cells
MAPK14 (human) [12] = target: MAPK14 (human) (UniProt Q16539); experiment: Inhibition of TNF-alpha Production in PBMC Cells
PIK3CA (human) [13] = target: PIK3CA (human) (UniProt P42336); experiment: Antiproliferation of NZB5 Cell Line Using Thymidine Depletion Assay
PIK3CA (human), sequence (P42336 whole entry, looked up): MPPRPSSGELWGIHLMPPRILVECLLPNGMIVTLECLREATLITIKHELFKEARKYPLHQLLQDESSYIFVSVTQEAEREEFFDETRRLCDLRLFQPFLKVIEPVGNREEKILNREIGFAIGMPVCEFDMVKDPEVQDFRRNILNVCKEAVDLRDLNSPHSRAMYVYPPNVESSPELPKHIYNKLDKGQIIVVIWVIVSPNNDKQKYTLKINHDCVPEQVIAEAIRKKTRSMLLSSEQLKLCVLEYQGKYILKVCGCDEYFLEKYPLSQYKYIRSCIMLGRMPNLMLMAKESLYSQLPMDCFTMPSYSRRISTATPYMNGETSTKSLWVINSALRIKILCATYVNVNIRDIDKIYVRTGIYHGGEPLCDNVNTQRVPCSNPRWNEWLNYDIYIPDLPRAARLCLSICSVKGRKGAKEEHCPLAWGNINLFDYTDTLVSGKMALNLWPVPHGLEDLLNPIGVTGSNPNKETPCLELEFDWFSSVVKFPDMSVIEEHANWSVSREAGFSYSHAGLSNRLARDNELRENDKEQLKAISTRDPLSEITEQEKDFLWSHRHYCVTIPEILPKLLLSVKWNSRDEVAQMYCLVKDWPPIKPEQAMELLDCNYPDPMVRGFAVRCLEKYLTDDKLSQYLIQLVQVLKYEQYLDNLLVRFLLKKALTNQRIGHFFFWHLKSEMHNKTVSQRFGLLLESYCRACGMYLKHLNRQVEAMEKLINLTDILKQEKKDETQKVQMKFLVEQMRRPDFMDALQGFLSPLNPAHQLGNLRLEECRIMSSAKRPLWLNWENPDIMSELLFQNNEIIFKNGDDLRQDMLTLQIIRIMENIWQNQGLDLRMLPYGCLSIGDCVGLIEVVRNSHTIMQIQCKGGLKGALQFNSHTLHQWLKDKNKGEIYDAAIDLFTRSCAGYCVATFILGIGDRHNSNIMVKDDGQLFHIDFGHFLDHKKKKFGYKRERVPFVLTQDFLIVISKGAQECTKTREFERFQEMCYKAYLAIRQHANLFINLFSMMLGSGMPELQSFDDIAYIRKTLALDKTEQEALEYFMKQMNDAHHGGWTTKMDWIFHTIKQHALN

PIK3CA (human) [14] = target: PIK3CA (human) (UniProt P42336); experiment: Antiproliferation of NZOV9 Cell Line Using Thymidine Depletion Assay
EGFR [15] = target: EGFR (UniProt P00533); remark: listed apart in the source
MAPK14 [16] = target: MAPK14 (UniProt Q16539); experiment: Inhibition of MAPK14 Kinase Activity (Spectrophometric Assay)
EGFR (human) [17] = target: EGFR (human) (UniProt P00533); conditions: concentration not given here
EGFR [18] = target: EGFR (UniProt P00533); remark: listed apart in the source
EGFR (murine) [19] = target: EGFR (murine) (UniProt P00533); conditions: nih3t3; remark: listed apart in the source
EGFR (human) [20] = target: EGFR (human) (UniProt P00533); conditions: A431
EGFR (human) [21] = target: EGFR (human) (UniProt P00533); conditions: concentration not given here; remark: listed apart in the source
EGFR (human) [22] = target: EGFR (human) (UniProt P00533)
[23] = target: PIK3CB;PIK3CG;PIK3CD;PIK3CA (human) (UniProt P48736); experiment: Antiproliferation of Anti-IgM stimulated Human B Cells by PI3K Inhibitors
CDK2 = CDK2 (UniProt P24941); experiment: Enzyme Assay; conditions: concentration not given here
MAPK14 [24] = target: MAPK14 (UniProt Q16539); experiment: p38-alpha Kinase Inhibition; conditions: concentration not given here
ROCK2 = ROCK2 (UniProt O75116); experiment: ROCK2 Kinase Inhibition; conditions: concentration not given here

EGFR, sequence (P00533 whole entry, looked up): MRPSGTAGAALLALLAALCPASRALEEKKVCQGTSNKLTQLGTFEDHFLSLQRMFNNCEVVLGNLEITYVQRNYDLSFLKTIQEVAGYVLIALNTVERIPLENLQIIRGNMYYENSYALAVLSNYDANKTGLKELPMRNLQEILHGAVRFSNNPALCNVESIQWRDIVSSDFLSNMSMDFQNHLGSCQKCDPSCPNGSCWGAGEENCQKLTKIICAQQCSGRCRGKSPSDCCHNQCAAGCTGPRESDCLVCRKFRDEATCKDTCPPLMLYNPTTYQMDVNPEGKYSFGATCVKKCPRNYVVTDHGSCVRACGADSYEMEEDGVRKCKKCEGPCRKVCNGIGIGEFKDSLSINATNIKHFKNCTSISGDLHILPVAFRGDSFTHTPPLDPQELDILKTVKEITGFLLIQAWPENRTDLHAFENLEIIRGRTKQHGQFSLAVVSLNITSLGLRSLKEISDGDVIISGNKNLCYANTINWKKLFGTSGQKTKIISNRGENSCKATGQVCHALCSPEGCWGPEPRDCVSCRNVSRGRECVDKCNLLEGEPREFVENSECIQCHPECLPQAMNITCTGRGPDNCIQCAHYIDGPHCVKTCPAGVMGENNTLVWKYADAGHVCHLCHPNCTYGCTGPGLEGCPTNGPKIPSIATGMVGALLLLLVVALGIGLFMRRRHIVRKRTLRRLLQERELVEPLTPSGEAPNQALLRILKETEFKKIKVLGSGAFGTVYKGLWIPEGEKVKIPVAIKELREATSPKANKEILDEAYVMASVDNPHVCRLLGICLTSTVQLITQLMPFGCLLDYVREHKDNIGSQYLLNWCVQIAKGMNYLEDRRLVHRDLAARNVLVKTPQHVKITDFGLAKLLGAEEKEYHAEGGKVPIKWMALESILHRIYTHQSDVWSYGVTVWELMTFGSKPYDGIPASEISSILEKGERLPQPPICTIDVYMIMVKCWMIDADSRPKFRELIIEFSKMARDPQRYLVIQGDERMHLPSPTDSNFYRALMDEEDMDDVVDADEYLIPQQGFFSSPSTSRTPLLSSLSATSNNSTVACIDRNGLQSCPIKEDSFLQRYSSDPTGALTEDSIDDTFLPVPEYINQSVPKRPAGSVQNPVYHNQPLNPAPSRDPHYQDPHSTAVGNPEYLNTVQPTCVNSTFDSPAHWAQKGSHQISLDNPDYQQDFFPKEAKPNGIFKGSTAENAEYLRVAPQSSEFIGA
EGFR (human), sequence (P00533 whole entry, looked up): as above
EGFR (murine), sequence (P00533 whole entry, looked up): as above
MAPK14, sequence (Q16539 whole entry, looked up): as the sequence (Q16539 whole entry, looked up) above

Question: Which inhibition (EGFR [1]; concentration not given here) does the source give for `c1ccc(Cn2ccc3cc(Nc4ncnc5ccccc45)ccc32)cc1` here?
Answer: 74%

Question: How did the pIC50 (MAPK14 [2]) turn out when `Cc1ccc(S(=O)(=O)n2cc(/C=C/c3cccnc3)c3ccccc32)cc1` was run?
Answer: 3.00

Question: How did the pIC50 (EGFR (human) [3]) turn out when `CNC(=O)[C@H]1C[C@H](Oc2cc3c(Nc4cccc(Cl)c4F)ncnc3cc2OC)CCN1C` was run?
Answer: 7.64

Question: With `CN(C)c1ccc(C=C2C(=O)Nc3ccccc32)c2ccccc12` as the compound, how does the pIC50 (EGFR [4]) read?
Answer: 4.49 to 5.49

Question: Which results are given for `COc1cc2ncnc(Nc3cccc(C(F)(F)F)c3)c2cc1OC`?
Answer: pIC50 (EGFR (murine) [5]): > 8.22; toxicity (EGFR (Balb/c mice); dose or concentration not given here): 40%

Question: `COc1cc(O)c2c(=O)c(-c3cccc(Cl)c3)cn(C)c2c1` was tested. Which pIC50 (EGFR (mouse)) did it give?
Answer: 5.55

Question: With `CNc1ccc2ncnc(Nc3cccc(Br)c3)c2c1` as the compound, how does the pIC50 (EGFR [6]) read?
Answer: 8.15

Question: With `Cc1ccc2ncnc(Nc3cccc(C(F)(F)F)c3)c2c1` as the compound, how does the pIC50 (EGFR (murine) [5]) read?
Answer: 6.05

Question: What about the LD50 (EGFR (Balb/c mice)) of the same compound?
Answer: > 400 mg/kg

Question: How did the pKi (EGFR (human) [7]) turn out when `N#CC(C#N)=Cc1cc(O)cc(O)c1` was run?
Answer: 5.00

Question: What does the source list for `COc1ccc2[nH]c3c(-c4ccccc4)nc4c(c3c2c1)C(=O)NC4=O`?
Answer: pIC50 (EGFR [8]): < 4.52; pIC50 (EGFR [9]): 5.05

Question: With `c1cncc(CCc2c[nH]c3ccccc23)c1` as the compound, how does the pIC50 (MAPK14 [2]) read?
Answer: 3.00

Question: What does the source list for `CSc1nc(-c2ccc(F)cc2)c(-c2ccnc(NC(C)=O)c2)n1CCN1CCCCC1`?
Answer: pIC50 (MAPK14 (human) [10]): < 5.00; pIC50 (MAPK14 (human) [11]): < 5.00

Question: With `COc1cc2ncnc(Nc3cccc(C#N)c3)c2cc1OC` as the compound, how does the pIC50 (EGFR (murine) [5]) read?
Answer: 6.70

Question: And the LD50 (EGFR (Balb/c mice))?
Answer: > 153 mg/kg

Question: `COc1cc2c(Nc3cc(NC(=O)c4cccc(N(C)C)c4)ccc3C)ncnc2cc1OCCCN1CCOCC1` was tested. Which pIC50 (MAPK14 (human) [12]) did it give?
Answer: 5.70

Question: `Nc1cc2ncnc(NCc3ccccc3)c2cn1` was tested. Which pIC50 (EGFR [6]) did it give?
Answer: 6.24

Question: With `Cc1ccc([N+](=O)[O-])cc1S(=O)(=O)N(C)N=Cc1cccc2ccccc12` as the compound, how does the pIC50 (PIK3CA (human) [13]) read?
Answer: < 4.70

Question: What about the pIC50 (PIK3CA (human) [14]) of the same compound?
Answer: < 4.70

Question: `COc1ccc(N2Cc3cnc(Nc4ccc(O)cc4)nc3N(c3ccccc3)C2=O)cc1` was tested. Which pIC50 (EGFR [15]) did it give?
Answer: 6.89

Question: `Cc1ccc([N+](=O)[O-])cc1S(=O)(=O)N(C)N=Cc1cncn1C` was tested. Which pIC50 (PIK3CA (human) [13]) did it give?
Answer: < 4.70

Question: What about the pIC50 (PIK3CA (human) [14]) of the same compound?
Answer: < 4.70

Question: How did the pIC50 (MAPK14 [16]) turn out when `CC(C)(C)c1cc(NC(=O)Nc2cccc3ccccc23)n(-c2ccc(CO)cc2)n1` was run?
Answer: 8.10

Question: `COCCOc1cc2ncnc(NC3=CC(=O)C(OCc4cccc(OC)c4)=CC3=O)c2cc1OC` was tested. Which inhibition (EGFR (human) [17]) did it give?
Answer: -13%

Question: `COc1cc2ncnc(Nc3ccc4c(ccn4Cc4ccccc4)c3)c2cc1OC` was tested. Which pIC50 (EGFR [1]) did it give?
Answer: 5.00

Question: With `COCCOc1cc2ncnc(NC3=CC(=O)C(OCc4ccccc4)=CC3=O)c2cc1OC` as the compound, how does the inhibition (EGFR (human) [17]) read?
Answer: -30%

Question: `Nc1ccc(-c2cc3c(N4CCCc5ccccc54)ncnc3[nH]2)cc1` was tested. Which pIC50 (EGFR [18]) did it give?
Answer: 7.59

Question: `Cc1nocc1C(=O)Nc1ccc(C(F)(F)F)cc1` was tested. Which pIC50 (EGFR (murine) [19]) did it give?
Answer: < 4.00

Question: `C[C@H](Nc1ncnc2ccccc12)c1ccccc1` was tested. Which pIC50 (EGFR (human) [20]) did it give?
Answer: < 5.00

Question: `COc1ccc2[nH]c3c(-c4ccccc4OC)nc4c(c3c2c1)C(=O)NC4=O` was tested. Which pIC50 (EGFR [8]) did it give?
Answer: < 4.52

Question: And the pIC50 (EGFR [9])?
Answer: < 4.52

Question: With `N#C/C(=C\c1ccc(O)c(O)c1)C(=O)O` as the compound, how does the pKi (EGFR (human) [7]) read?
Answer: 4.63

Question: How did the pIC50 (EGFR (human) [20]) turn out when `C[C@H](Nc1[nH]cnc2c3ccccc3nc1-2)c1ccccc1` was run?
Answer: < 4.00

Question: How did the pIC50 (EGFR [6]) turn out when `c1ccc(CNc2ncnc3ncccc23)cc1` was run?
Answer: < 5.00

Question: How did the pIC50 (EGFR (mouse)) turn out when `COc1cc(O)c2c(=O)c(-c3cccc(Cl)c3)c[nH]c2c1` was run?
Answer: 4.94

Question: `COCCOc1cc2ncnc(NC3=CC(=O)C(OCc4cccc(F)c4)=CC3=O)c2cc1OC` was tested. Which inhibition (EGFR (human) [17]) did it give?
Answer: -27%

Question: With `Cc1n[nH]cc1C(=O)Nc1ccc(C(F)(F)F)cc1` as the compound, how does the pIC50 (EGFR (murine) [19]) read?
Answer: < 4.00

Question: With `CCc1nc2c(NC(C)(C)C)nc(Nc3ccc4ncsc4c3)nc2[nH]1` as the compound, how does the inhibition (EGFR (human) [21]) read?
Answer: < 50%

Question: With `COc1ccc(NN=Cc2c(N)ncnc2Nc2ccc3c(cnn3Cc3cccc(F)c3)c2)cc1` as the compound, how does the pIC50 (EGFR (human) [22]) read?
Answer: 7.31

Question: With `Fc1ccc(OCCc2ccccc2)c(-c2nc3c(Cl)cccc3cc2CNc2ncnc3[nH]cnc23)c1` as the compound, how does the pIC50 [23] read?
Answer: 6.25

Question: `Cc1[nH]c2ncnc(N3CCCc4ccccc43)c2c1C` was tested. Which pIC50 (EGFR [18]) did it give?
Answer: 5.57

Question: How did the pIC50 (MAPK14 (human) [12]) turn out when `CCC(=O)Nc1cc(Nc2ncnc3cc(OC)c(OC)cc23)ccc1F` was run?
Answer: 5.49

Question: `Cn1cc(C2=C(c3cn(CCCN)c4ccccc34)C(=O)NC2=O)c2ccccc21` was tested. Which activity (CDK2) did it give?
Answer: 34%

Question: What about the activity (MAPK14 [24]) of the same compound?
Answer: 38%

Question: And the activity (ROCK2)?
Answer: 33%

Question: How did the pIC50 (MAPK14 (human) [10]) turn out when `CSc1nc(-c2ccc(F)cc2)c(-c2ccnc(NC(C)=O)c2)n1CCN1CCOCC1` was run?
Answer: < 5.00

Question: And the pIC50 (MAPK14 (human) [11])?
Answer: < 5.00

Source: the Kinase Knowledgebase extract (Sharma et al. 2016)
